The values that follow come from article PMC6934184, “Selective DNA-PKcs inhibition extends the therapeutic index of localized radiotherapy and chemotherapy” (The Journal of Clinical Investigation, 2019).

For this assay, the target named is T1, AMPK (A2/B2/G1) (Homo sapiens, UniProt P54646).
T1 construct: purchased Thermo Fisher Scientific (Life Technologies) SelectScreen
The assay is described as follows: SelectScreen LanthaScreen. The format is binding. Particulars: read-out: % displacement. In outline: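 SelectScreen broad panel; activity (Z'LYTE, Adapta) plus binding formats. ATP: Km app for CSF1R Z'LYTE; 10 for CAMK1 Adapta. Readout = % per kinase.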

The structures appear in SMILES notation.

T1 sequence (P54646 whole entry): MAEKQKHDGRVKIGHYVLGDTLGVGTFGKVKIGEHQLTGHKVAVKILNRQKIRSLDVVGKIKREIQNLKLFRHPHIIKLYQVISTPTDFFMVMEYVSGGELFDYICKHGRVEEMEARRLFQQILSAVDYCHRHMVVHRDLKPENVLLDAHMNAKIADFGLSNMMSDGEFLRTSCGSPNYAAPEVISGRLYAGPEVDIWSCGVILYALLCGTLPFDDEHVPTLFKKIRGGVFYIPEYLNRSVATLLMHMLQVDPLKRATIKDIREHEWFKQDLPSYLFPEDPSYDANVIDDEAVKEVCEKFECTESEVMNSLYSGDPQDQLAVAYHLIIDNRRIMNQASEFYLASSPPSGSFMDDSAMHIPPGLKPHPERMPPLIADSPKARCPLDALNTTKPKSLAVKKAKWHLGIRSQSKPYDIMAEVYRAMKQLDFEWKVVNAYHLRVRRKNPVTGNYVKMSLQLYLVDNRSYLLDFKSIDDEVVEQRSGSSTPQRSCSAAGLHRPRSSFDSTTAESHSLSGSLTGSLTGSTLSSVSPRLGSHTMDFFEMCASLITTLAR
T1 sequence (O43741 whole entry partner): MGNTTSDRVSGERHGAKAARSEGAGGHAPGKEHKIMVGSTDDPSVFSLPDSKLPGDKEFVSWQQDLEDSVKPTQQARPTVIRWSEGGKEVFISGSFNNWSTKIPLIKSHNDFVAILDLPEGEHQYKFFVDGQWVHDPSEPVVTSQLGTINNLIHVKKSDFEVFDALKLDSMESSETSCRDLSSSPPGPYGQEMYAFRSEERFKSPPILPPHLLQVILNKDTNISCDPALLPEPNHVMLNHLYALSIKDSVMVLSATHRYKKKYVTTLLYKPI
T1 sequence (P54619 whole entry partner): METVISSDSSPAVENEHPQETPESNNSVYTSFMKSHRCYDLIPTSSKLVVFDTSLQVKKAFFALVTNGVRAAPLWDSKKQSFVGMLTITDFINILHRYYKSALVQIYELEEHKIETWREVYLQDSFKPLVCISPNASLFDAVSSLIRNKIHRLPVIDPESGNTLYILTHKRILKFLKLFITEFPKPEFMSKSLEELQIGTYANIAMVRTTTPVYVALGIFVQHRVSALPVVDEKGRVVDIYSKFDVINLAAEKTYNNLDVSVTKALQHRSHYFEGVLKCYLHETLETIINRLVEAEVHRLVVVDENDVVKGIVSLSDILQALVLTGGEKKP

For the compound `CN(C(=O)CN1CCOCC1)c1ccc2sc3c(-c4cccc5c(=O)cc(N6CC7CCC(C6)O7)oc45)cccc3c2c1` [NU5455], the inhibition at 1 µM is -2.3%.
